Assay results reported in PMC8146789, “20-Hydroxyecdysone, from Plant Extracts to Clinical Use: Therapeutic Potential for the Treatment of Neuromuscular, Cardio-Metabolic and Respiratory Diseases” (Biomedicines, 2021).
Where two headings read alike, the source gives them in different places.

How the values were obtained:
[1] = set-up: method as in Wu et al. [124]; settings: mice, ref Wu et al. [124], cited from earlier work
[2] = set-up: method as in doi:10.1055/s-0032-1320426; settings: ovariectomized rats, p < 0.05; ref [171],[172]; cited from earlier work
[3] = repeated dose toxicity study (26-week); settings: rat, in vivo; rats, 26-week repeated dose; Biophytis, unpublished data; read-out: No Observed Adverse Effect Level (NOAEL)
From the text: More recently, a purified to pharmaceutical grade 20E (≥97% 20E purity) was used as a drug candidate in preclinical regulatory studies including safety pharmacology, genotoxicity and repeated toxicology in rodents (rats) and non-rodents (dog).

CC(C)(O)CC[C@@H](O)[C@](C)(O)[C@H]1CC[C@@]2(O)C3=CC(=O)[C@@H]4C[C@@H](O)[C@@H](O)C[C@]4(C)[C@H]3CC[C@]12C [20E, 2β,3β,14α,20R,22R,25-hexahydroxy-5β-cholest-7-en-6-one]
quantitative distribution, Urine ([1]; 1 h): 0.281 µg/g | quantitative distribution, Adrenals ([1]; 3 h): 0.073 µg/g | quantitative distribution, Bile ([1]; 3 h): 0.301 µg/g | quantitative distribution, Bladder ([1]; 3 h): 0.023 µg/g | quantitative distribution, Blood plasma ([1]; 3 h): 0.032 µg/g | quantitative distribution, Brain ([1]; 3 h): 0.012 µg/g | quantitative distribution, Feces ([1]; 3 h): 0.099 µg/g | quantitative distribution, Heart ([1]; 3 h): 0.031 µg/g | quantitative distribution, Kidney ([1]; 3 h): 0.055 µg/g | quantitative distribution, Large intestine ([1]; 3 h): 0.035 µg/g | quantitative distribution, Liver ([1]; 3 h): 0.078 µg/g | quantitative distribution, Lungs ([1]; 3 h): 0.049 µg/g | quantitative distribution, Skeletal muscle ([1]; 3 h): 0.015 µg/g | quantitative distribution, Small intestine ([1]; 3 h): 0.076 µg/g | quantitative distribution, Spinal cord ([1]; 3 h): 0.033 µg/g | quantitative distribution, Spleen ([1]; 3 h): 0.023 µg/g | quantitative distribution, Stomach ([1]; 3 h): 0.053 µg/g | quantitative distribution, Testis ([1]; 3 h): 0.023 µg/g | quantitative distribution, Urine ([1]; 3 h): 0.102 µg/g | quantitative distribution, Adrenals ([1]; 6 h): 0.065 µg/g | quantitative distribution, Bile ([1]; 6 h): 0.209 µg/g | quantitative distribution, Bladder ([1]; 6 h): 0.018 µg/g | quantitative distribution, Blood plasma ([1]; 6 h): 0.023 µg/g | quantitative distribution, Brain ([1]; 6 h): 0.01 µg/g | quantitative distribution, Feces ([1]; 6 h): 0.931 µg/g | quantitative distribution, Heart ([1]; 6 h): 0.029 µg/g | quantitative distribution, Kidney ([1]; 6 h): 0.043 µg/g | quantitative distribution, Large intestine ([1]; 6 h): 0.048 µg/g | quantitative distribution, Liver ([1]; 6 h): 0.061 µg/g | quantitative distribution, Lungs ([1]; 6 h): 0.045 µg/g | quantitative distribution, Skeletal muscle ([1]; 6 h): 0.013 µg/g | quantitative distribution, Small intestine ([1]; 6 h): 0.061 µg/g | quantitative distribution, Spinal cord ([1]; 6 h): 0.024 µg/g | quantitative distribution, Spleen ([1]; 6 h): 0.027 µg/g | quantitative distribution, Stomach ([1]; 6 h): 0.041 µg/g | quantitative distribution, Testis ([1]; 6 h): 0.021 µg/g | quantitative distribution, Urine ([1]; 6 h): 0.096 µg/g | quantitative distribution, Adrenals ([1]; 12 h): 0.052 µg/g | quantitative distribution, Bile ([1]; 12 h): 0.198 µg/g | quantitative distribution, Bladder ([1]; 12 h): 0.015 µg/g | quantitative distribution, Blood plasma ([1]; 12 h): 0.015 µg/g | quantitative distribution, Brain ([1]; 12 h): 0.008 µg/g | quantitative distribution, Feces ([1]; 12 h): 0.312 µg/g | quantitative distribution, Heart ([1]; 12 h): 0.023 µg/g | quantitative distribution, Kidney ([1]; 12 h): 0.037 µg/g | quantitative distribution, Large intestine ([1]; 12 h): 0.038 µg/g | quantitative distribution, Liver ([1]; 12 h): 0.056 µg/g | quantitative distribution, Lungs ([1]; 12 h): 0.036 µg/g | quantitative distribution, Skeletal muscle ([1]; 12 h): 0.011 µg/g | quantitative distribution, Small intestine ([1]; 12 h): 0.05 µg/g | quantitative distribution, Spinal cord ([1]; 12 h): 0.020 µg/g | quantitative distribution, Spleen ([1]; 12 h): 0.032 µg/g | quantitative distribution, Stomach ([1]; 12 h): 0.032 µg/g | quantitative distribution, Testis ([1]; 12 h): 0.019 µg/g | quantitative distribution, Urine ([1]; 12 h): 0.087 µg/g | quantitative distribution, Adrenals ([1]; 24 h): 0.043 µg/g | quantitative distribution, Bile ([1]; 24 h): 0.094 µg/g | quantitative distribution, Bladder ([1]; 24 h): 0.013 µg/g | quantitative distribution, Blood plasma ([1]; 24 h): 0.011 µg/g | quantitative distribution, Brain ([1]; 24 h): 0.007 µg/g | quantitative distribution, Feces ([1]; 24 h): 0.041 µg/g | quantitative distribution, Heart ([1]; 24 h): 0.022 µg/g | quantitative distribution, Kidney ([1]; 24 h): 0.032 µg/g | quantitative distribution, Large intestine ([1]; 24 h): 0.023 µg/g | quantitative distribution, Liver ([1]; 24 h): 0.046 µg/g | quantitative distribution, Lungs ([1]; 24 h): 0.028 µg/g | quantitative distribution, Skeletal muscle ([1]; 24 h): 0.010 µg/g | quantitative distribution, Small intestine ([1]; 24 h): 0.033 µg/g | quantitative distribution, Spinal cord ([1]; 24 h): 0.018 µg/g | quantitative distribution, Spleen ([1]; 24 h): 0.027 µg/g | quantitative distribution, Stomach ([1]; 24 h): 0.023 µg/g | quantitative distribution, Testis ([1]; 24 h): 0.017 µg/g | quantitative distribution, Urine ([1]; 24 h): 0.046 µg/g | abdominal, bone marrow and joint fat [2]: reduced the amount of abdominal, bone marrow and joint fat | NOAEL at 26 week [3]: 1000 mg/kg
